# Entries after “also recorded” stand apart in the source; their conditions may differ.
# Columns and labels:
# DPAGT1 = target: T1, DPAGT1 (Homo sapiens, UniProt Q9H3H5); assay: DPAGT1 radiometric in vitro activity assay (end point, phosphorimaging of radio-TLC); format: biochemical; conditions: for % Activity of DPAGT1 in the presence of a tunicamycin analogue compared to a negative control (GFB): Table S1, analogue 1 µM, DPAGT1 1 µM, dolichyl monophosphate 50 µM, UDP-GlcNAc(1-14C) 50 µM, 37 °C, 21 min, three biological replicates; for DPAGT1 inhibition (in words) / activity at 1 µM: inhibitor 1 µM; for DPAGT1 inhibition (in words): enzyme:inhibitor 1:1, substrates 50 µM; for activity at 1 µM: enzyme:inhibitor 1:1, read-out: retained DPAGT1 activity (% of WT activity)
# T1 construct: full-length DPAGT1 bearing an additional tobacco etch virus (TEV) protease-cleavable N-terminal His6 tag; His6 with TEV protease cleavage site ([…]/S leader) (N, cleaved yes); made in house; host or cells: Spodoptera frugiperda Sf9 insect cells (baculovirus, pFB-LIC-Bse vector)
# T1 sequence (Q9H3H5 with tags, fused parts or gaps): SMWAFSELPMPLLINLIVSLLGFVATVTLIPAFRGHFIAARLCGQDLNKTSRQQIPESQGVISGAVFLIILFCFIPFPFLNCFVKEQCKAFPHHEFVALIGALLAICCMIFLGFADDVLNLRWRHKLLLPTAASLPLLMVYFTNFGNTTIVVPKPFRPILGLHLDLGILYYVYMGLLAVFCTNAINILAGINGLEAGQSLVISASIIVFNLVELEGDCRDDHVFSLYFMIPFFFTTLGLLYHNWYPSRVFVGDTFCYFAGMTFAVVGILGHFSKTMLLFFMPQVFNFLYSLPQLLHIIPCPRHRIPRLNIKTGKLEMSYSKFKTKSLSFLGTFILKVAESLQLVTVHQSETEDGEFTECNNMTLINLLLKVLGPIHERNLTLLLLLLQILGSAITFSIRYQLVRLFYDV
# Source text: Figure 2 Design, synthesis and in vitro inhibitory activity of lipid-altered tunicamycins. (A) Structure of DPAGT1 in complex with tunicamycin[21] showing key interactions primarily along TMH5 that in concert with a Trp122 “lid” create the lipid-engagement site (blue). This engagement contrasts with a small, gated pocket below bounded primarily by Leu293 in which only smaller moieties (here an acetamide) are accommodated (red). (B) Guided by this structure, as an apparent snapshot of a Michaelis complex-like mode of binding, modulation at two acyl sites in the core scaffold was explored. […] Semisynthesis allowed generation of graduated lipid tunicamycin analogues through regiochemical differentiation in carbamoylation to generate two key divergent intermediates: Tun-0E,0G and Tun-0E,2G. Subsequent differential acylations allow for generation of both symmetric and asymmetric Tun-XE,YG analogues. Reagents and conditions: (a) Ac2O, pyridine; (b) Boc2O, DMAP, THF; (c) NaOMe, MeOH; (d) 4 M HCl in dioxane, MeOH; (e) HATU, DIPEA, octanoic acid, DMF; (f) HATU, DIPEA, carboxylic acid; (g) HATU, DIPEA, 2 × carboxylic acid. (C) Residual % in vitro activity of DPAGT1 following incubation with analogues [DPAGT1 ([…]), MgCl2 (5 mM), Tun analogue ([…]), dolichol phosphate ([…]), and UDP-GlcNAc(1-^14C) ([…]) in 1% OGNG/CHS/cardiolipin] was assessed through end point assay at 37 °C via phosphorimaging. These were determined on the basis of three biological replicates, each using three technical replicates. Error bars shown are standard deviations.
# The intended targeting and graduated modulation of DPAGT1’s PNPT activity was assessed in vitro using a highly pure recapitulated source. Briefly, full-length DPAGT1 bearing an additional tobacco etch virus (TEV) protease-cleavable N-terminal His6 tag was expressed using a baculovirus (DH10Bac)/insect cell (Spodoptera frugiperda Sf9) system using a pFB-LIC-Bse expression vector. DPAGT1 is an integral transmembrane enzyme, and thus, after harvesting and lysis, protein was extracted from the expression host membrane fraction using octyl glucose neopentyl glycol (OGNG) (1% w/v) and cholesterylhemisuccinate (CHS) (0.1% w/v) before isolation and purification by immobilized metal affinity chromatography (IMAC) using a Co^2+-charged (“TALON”) resin and elution with an imidazole gradient. To ensure that there were no confounding effects of the His6 tag, this was then cleaved with TEV protease followed by reverse IMAC and size exclusion chromatography in sequence.
# Radiometric bisubstrate analyses allowed excellent sensitivity under the conditions necessary for proper recapitulation of the activity. Purified DPAGT1 (1 μM) was incubated with both substrates, dolichol monophosphate and radiolabeled UDP-N-acetyl-D-[1-^14C]glucosamine, at 50 μM, and the activity was determined directly by end point phosphor detection of product dolichol-PP-N-acetyl-D-[1-^14C]glucosamine formation.
# MgCl2, 10 mM imidazole (pH 8.0), 200 mM NaCl , 2 mM TCEP (added fresh), 5% Glycerol, 0.18% OGNG, 0.01 8% CHS, 0.0036% cardiolipin) and the protein was eluted with WB supplemented with 250 mM imidazole (pH 8.0). The eluted protein was desalted using PD-10 columns (GE Healthcare) pre-equilibrated with gel filtration buffer (GFB: 20 mM HEPES (pH […]
# cardiolipin). Desalted protein was subsequently treated with 10:1 TEV protease (w:w, protein:enzyme) overnight at 4 ° C. The TEV protease treated protein was separated from the 6-His-tagged enzymes and uncleaved DPAGT1 by incubation for 1 h with Talon resin (prepared as described above) at 4 °C for 1 h. The resin was collected in a column, the flowthrough collected and the protein sample was centrifuged at 21,500 rpm in a Beckman TA25.5 rotor for 10 min at 4 ° C. The supernatant was then concentrated to 0.5 mL using a 30 kDa cutoff PES concentrator (Corning), with mixing every 5 mins during concentration. The […]
# ATF4 = ATF4 high-content imaging assay in primary human dermal fibroblasts; format: cell-based; conditions: 6 h, Figures S8–S12
# Description: A targeted panel of tunicamycin analogues was tested in the ATF4 High Content Imaging assay to assess their ER stress generating ability in a primary cell line. Normal adult human dermal fibroblasts (NHDF-Ad, Lonza) were plated in a 96-well Phenoplate (PerkinElmer) at a seeding density of 10,000 cells per well in fibroblast growth medium (containing fibroblast basal medium, 10% FBS, 0.1% insulin, 0.1% hFGF-B, 0.1% Gentamicin/Amphotericin) and incubated at 37°C, 5% CO2. Treatment with pre-diluted compounds was performed after 24 hrs with final concentrations ranging from 10 µM – 5 nM (final DMSO concentration was 0.3%). Low control (0.3% DMSO final conc.) and high control (0.3 µM tunicamycin final conc.) wells were again included for assay normalization. Treated cells were incubated for 6 hrs at 37°C, 5% CO2 before fixing (4% PFA in PBS, 20 min at room temperature followed by washing (3x) with PBS). Direct ATF4 immunofluorescence staining was then performed, whereby cells were treated with a Coralite Plus 488-conjugated ATF4 Polyclonal antibody (CL488-10835, Proteintech) in a 1:100 dilution of Perm-block buffer (10% FBS, 0.3% TritonX-100 in PBS) for 2 hrs. Nuclei staining was then performed with DRAQ5 dye (ab108410, Abcam) at 1:1000 in PBS. Plates were imaged on a Leica SP8 confocal microscope equipped with 488 nm and 633 nm excitation and images were analysed using script-based algorithms as described for HEK cells above. […]
Compound,% Activity of DPAGT1 in the presence of a tunicamycin analogue compared to a negative control (GFB) (DPAGT1) [%],DPAGT1 inhibition (in words) (DPAGT1),activity at 1 µM (DPAGT1) [%],increase in ATF4 (in words) (ATF4)
"CCCCCCCC(=O)N[C@H]1[C@H](O[C@H]2O[C@H](CO)[C@@H](O)[C@H](O)[C@H]2NC(C)=O)O[C@H](C[C@@H](O)[C@H]2O[C@@H](n3ccc(=O)[nH]c3=O)[C@H](O)[C@@H]2O)[C@H](O)[C@@H]1O [Tun-8E,2G]",35.4,increasing inhibitory activity in a graduated manner,35,only Tun itself leads to an increase in ATF4
tunicamycin [reference compound],0.18,complete inhibition,,leads to an increase in ATF4
"CCCCCCCCC(=O)N[C@H]1[C@H](O[C@H]2O[C@H](CO)[C@@H](O)[C@H](O)[C@H]2NC(=O)CC(C)C)O[C@H](C[C@@H](O)[C@H]2O[C@@H](n3ccc(=O)[nH]c3=O)[C@H](O)[C@@H]2O)[C@H](O)[C@@H]1O [Tun-9E,i5G]",54.8,increasing inhibitory activity in a graduated manner,55,
"CCCCCCCCC(=O)N[C@H]1[C@H](O[C@H]2O[C@H](CO)[C@@H](O)[C@H](O)[C@H]2NC(=O)CCCCCCCC)O[C@H](C[C@@H](O)[C@H]2O[C@@H](n3ccc(=O)[nH]c3=O)[C@H](O)[C@@H]2O)[C@H](O)[C@@H]1O [Tun-9E,9G]",79.6,little to no significant inhibition; also recorded: minimal DPAGT1 inhibition,,only Tun itself leads to an increase in ATF4
"CCCCCCCCC(=O)N[C@H]1[C@@H](O[C@@H]2O[C@H](C[C@@H](O)[C@H]3O[C@@H](n4ccc(=O)[nH]c4=O)[C@H](O)[C@@H]3O)[C@H](O)[C@H](O)[C@H]2NC(=O)CCC)O[C@H](CO)[C@@H](O)[C@@H]1O [Tun-4E,9G]",93.6,little to no significant inhibition; also recorded: minimal DPAGT1 inhibition,,

# Reference: paper PMC11758266, “Lipid-Modulated, Graduated Inhibition of N-Glycosylation Pathway Priming Suggests Wide Tolerance of ER Proteostasis to Stress” (ACS Central Science, 2024)
